Here are results for three compounds from patent US9643992B2, “Two crystal forms of ginsenoside C-K and method for preparing same” (Zhejiang Hisun Pharmaceutical Co., Ltd., priority 2012, dated 2017).

This data set can be described thus: Thermostability test of crystal forms. The class given is physicochemical. Particulars: solid sample placed at 80° C. for 1 week; change of crystal form detected. As to the method:
3. Thermostability Test The samples of crystal form D, crystal form H and crystal form G were each placed for 1 week at 80° C., and subsequently the changes of the crystal form were detected.

On to `CC(C)=CCC[C@](C)(O[C@@H]1O[C@H](CO)[C@@H](O)[C@H](O)[C@H]1O)[C@H]1CC[C@]2(C)[C@@H]1[C@H](O)C[C@@H]1[C@@]3(C)CC[C@H](O)C(C)(C)[C@@H]3CC[C@]12C` [crystal form D, ginsenoside C-K], for which the “The crystal form after test” value was “no change was observed”.
In the case of `CC(C)=CCC[C@](C)(O[C@@H]1O[C@H](CO)[C@@H](O)[C@H](O)[C@H]1O)[C@H]1CC[C@]2(C)[C@@H]1[C@H](O)C[C@@H]1[C@@]3(C)CC[C@H](O)C(C)(C)[C@@H]3CC[C@]12C` [crystal form G, ginsenoside C-K] it was “changed to crystal form D”; in that of `CC(C)=CCC[C@](C)(O[C@@H]1O[C@H](CO)[C@@H](O)[C@H](O)[C@H]1O)[C@H]1CC[C@]2(C)[C@@H]1[C@H](O)C[C@@H]1[C@@]3(C)CC[C@H](O)C(C)(C)[C@@H]3CC[C@]12C` [crystal form H, ginsenoside C-K], “no change was observed”.
